Test results as given in publication PMC6410202, “Dual Action of the PN159/KLAL/MAP Peptide: Increase of Drug Penetration across Caco-2 Intestinal Barrier Model by Modulation of Tight Junctions and Plasma Membrane Permeability” (Pharmaceutics, 2019).

Legend:
Caco-2 epithelial cells = experiment: MTT assay, Caco-2 cell viability; type: cell-based, human; details: 1-h treatment
Description: The human Caco-2 intestinal epithelial cell line was purchased from ATCC (cat.no. HTB-37). Caco-2 cells were grown in DMEM/HAM’s F-12 culture medium with stable glutamine (Life Technologies, Gibco, Carlsbad, CA, USA) supplemented with 10% fetal bovine serum (Life Technologies, Gibco, Carlsbad, CA, USA and 50 μg/mL gentamycin in a humidified incubator with 5% CO2 at 37 °C. All plastic surfaces were coated with 0.05% rat tail collagen in sterile distilled water before cell seeding.
The PN159 peptide stock solution (5 mM) was prepared freshly in sterile DMSO. Treatment solutions were further diluted in Ringer-Hepes (150 mM NaCl, 6 mM NaHCO3, 5.2 mM KCl, 2.2 mM CaCl2, 0.2 mM MgCl2, 2.8 mM D-glucose, 5 mM Hepes; pH 7.4) or cell culture medium. Final concentrations of the peptide in treatment solutions were as follows: 1, 3, 10, 30 and 100 µM for cell viability assays; 1, 3, 10 and 30 µM for the barrier integrity assays and 10 µM for the recovery measurements.
For the cell viability assays Caco-2 epithelial cells were seeded to 96-well plates at the density of 6 × 10^3 cells/well (Orange Scientific) and cultured for 3-5 days. Confluent cultures were treated with PN159 peptide (1, 3, 10, 30 and 100 μM) in phenol red free DMEM (Life Technologies, Gibco, Carlsbad, CA, USA) for 1-h. This viability assay was performed at three different time points: (i) immediately after the 1-h treatment, (ii) at one-day recovery, (iii) at one-week recovery. To determine 100% toxicity, cells were incubated with 1 mg/mL Triton X-100 detergent. After treatment the medium was changed and 0.5 mg/mL MTT (3-(4,5-dimethyltiazol-2-yl)-2,5-diphenyltetrazolium bromide) solution was added to the cells for 3 h. During the incubation cells were kept in a CO2 incubator. The metabolic activity of cells is reflected by the conversion of the yellow MTT dye to purple formazan. Formazan crystals were dissolved in DMSO and the amount of converted dye was determined by measuring absorbance at 595 nm wavelength with a microplate reader (Fluostar Optima, BMG Labtechnologies, Ortenberg, Germany). Cell viability and/or metabolic activity was calculated as percentage of dye conversion by non-treated cells.

Caco-2 cells = experiment: Impedance measurement (RTCA), Caco-2 cells; type: cell-based; details: PN159 1-100 μM, 1-h or one-day treatment
Description: Kinetics of epithelial cell reaction to PN159 peptide treatment was monitored by impedance measurement at 10 kHz (RTCA-SP instrument, ACEA Biosciences, San Diego, CA, USA). Impedance measurement is non-invasive, label-free and real time, and linearly correlates with adherence, growth, number and viability of cells. For background measurements 50 μL cell culture medium was added to the wells, then cells were seeded at a density of 6 × 10^3 cells/well to the coated 96-well plates with integrated gold electrodes (E-plate 96, ACEA Biosciences). Cells were cultured for 5–7 days in a CO2 incubator at 37 °C and monitored every 10 min until the end of experiments. Cells were treated with PN159 peptide solutions at 1, 3, 10, 30 and 100 μM concentrations at the beginning of the plateau phase of growth and the effects were followed for 1-h or 24 h. To measure cell recovery, peptide solutions were changed to culture medium and the impedance was monitored for one week. Culture medium was changed every 2 days. Caco-2 cells were also treated with the three selected CPPs, Pep-1, R8 and φ-peptide, at 100 μM concentrations at the beginning of the plateau phase of cell growth for 24-h. Triton X-100 detergent (1 mg/mL) was used as a reference compound to induce cell death. Cell index was defined as Rn-Rb at each time point of measurement, where Rn is the cell-electrode impedance of the well when it contains cells and Rb is the background impedance of the well with the medium alone.

Caco-2 cell layers = experiment: Penetration of marker and drug molecules across Caco-2 cell layers (Papp A-B); details: PN159 10 and 30 μM, 1-h treatment
Description: In the permeability experiments inserts with Caco-2 cell layers grown for 3 weeks were transferred to 12-well plates containing 1.5 mL Ringer–Hepes buffer in the lower (basal or acceptor) compartments. In the upper or apical compartments culture medium was replaced by 0.5 mL buffer containing peptide solutions: PN159 peptide at 1, 3, 10 and 30 μM concentrations and CPPs at 100 μM concentration. […] The incubation with permeability markers in the presence of PN159 peptide lasted for 30 min. In case of CPPs the incubation time with fluorescein was 1-h. Samples were collected from both compartments and the concentrations of the marker molecules were determined by a fluorescence multi-well plate reader (Fluostar Optima; excitation wavelength: 485 nm, emission wavelength: 535 nm in the case of fluorescein and excitation wavelength: 584 nm, emission wavelength: 680 nm in the case of Evans-blue labeled albumin). Fluorescein isothiocyanate (FITC)-labelled dextran marker molecules (Table 1) were used at 1 mM concentrations, and fluorescence intensities of collected samples were measured using a Fluorolog FL3-22 (Horiba Jobin Yvon, Paris, France) spectrofluorometer using 492 nm excitation wavelength, 515 nm emission wavelength, and 0.5 s integration time. Drugs were used at 10 μM concentrations and samples were measured by HPLC as described below. The apparent permeability coefficients (Papp) were calculated as described previously. Briefly, cleared volume was calculated from the concentration difference of the tracer in the basal compartments (Δ[C]B) after 30 min and apical compartments at 0 h ([C]A), the volume of the basal compartment (VB; 1.5 mL) and the surface area available for permeability (A; 1.1 cm^2).
Analytical measurements were performed on a Merck-Hitachi LaChrom HPLC system equipped with an ultraviolet (UV) and fluorescence detector (Merck, Darmstadt, Germany). All reagents used were of analytical reagent grade. […] In both cases 10μL sample was injected into the chromatographic system.
The chromatographic column was maintained at 40 °C and the 5 μL sample was injected onto the column.
The column temperature was maintained at 40 °C and a 20 μL sample was injected onto the chromatographic system. […] UV detection was set at 228 nm.

[1] = system: respiratory epithelial tissue (EpiAirway model); parameters: method as in PMID 16625659; details: 1-h treatment; cited from earlier work
claudin-5 = system: claudin-5; parameters: method as in PMID 26869428; details: affinity measurements; cited from earlier work

Compound: CC(C)C[C@H](NC(=O)[C@H](C)NC(=O)[C@H](CCCCN)NC(=O)[C@H](CC(C)C)NC(=O)[C@H](C)NC(=O)[C@H](CC(C)C)NC(=O)[C@H](CCCCN)NC(=O)[C@H](CC(C)C)NC(=O)[C@H](C)NC(=O)[C@H](CC(C)C)NC(=O)[C@@H](N)CCCCN)C(=O)N[C@@H](CCCCN)C(=O)N[C@@H](C)C(=O)N[C@@H](C)C(=O)N[C@@H](CC(C)C)C(=O)N[C@@H](CCCCN)C(=O)N[C@@H](CC(C)C)C(=O)N[C@@H](C)C(N)=O [PN159]
- Non-toxic concentration (MTT and impedance) (Caco-2 epithelial cells; Caco-2): ≤ 10 µM
- Toxicity (MTT and impedance) (Caco-2 epithelial cells; PN159 30 μM): reversible
- Toxicity (MTT and impedance) (Caco-2 epithelial cells; PN159 100 μM): toxic
- Reversibility of cytotoxic effect (MTT) (Caco-2 epithelial cells; PN159 100 μM, 1-day or 1-week recovery): not reversible after one day or even one week
- Cell viability (MTT) (Caco-2 epithelial cells; PN159 1–10 μM, Caco-2): did not decrease cell viability
- Cell viability (MTT) (Caco-2 epithelial cells; PN159 30 and 100 μM, Caco-2): cell damage
- Cell impedance (normalized cell index) (Caco-2 cells): only the two highest peptide concentrations decreased the cell impedance
- Permeability enhancement for fluorescein and albumin (Caco-2 cell layers): most effective permeability enhancer activity
- Safe concentration (MTT) [1]: up to 100 μM
- Binding (claudin-5): in the micromolar range
